According to US8916575B2, “Quinazoline derivatives for the treatment of viral infections and further diseases” (Janssen R&D Ireland, priority 2011, dated 2014):

What was measured:
human TLR7 = molecular target: T1, human TLR7 (Homo sapiens, UniProt Q9NYK1); experiment: TLR7 wild type NFκB-luc cellular reporter assay; type: cell-based; set-up: unit not given here; settings: HEK293 NFκB-luc reporter, 6 hours incubation; second part of table
T1 construct: expressed in transfected cells; host or cells: HEK293
T1 sequence (Q9NYK1 27-1049): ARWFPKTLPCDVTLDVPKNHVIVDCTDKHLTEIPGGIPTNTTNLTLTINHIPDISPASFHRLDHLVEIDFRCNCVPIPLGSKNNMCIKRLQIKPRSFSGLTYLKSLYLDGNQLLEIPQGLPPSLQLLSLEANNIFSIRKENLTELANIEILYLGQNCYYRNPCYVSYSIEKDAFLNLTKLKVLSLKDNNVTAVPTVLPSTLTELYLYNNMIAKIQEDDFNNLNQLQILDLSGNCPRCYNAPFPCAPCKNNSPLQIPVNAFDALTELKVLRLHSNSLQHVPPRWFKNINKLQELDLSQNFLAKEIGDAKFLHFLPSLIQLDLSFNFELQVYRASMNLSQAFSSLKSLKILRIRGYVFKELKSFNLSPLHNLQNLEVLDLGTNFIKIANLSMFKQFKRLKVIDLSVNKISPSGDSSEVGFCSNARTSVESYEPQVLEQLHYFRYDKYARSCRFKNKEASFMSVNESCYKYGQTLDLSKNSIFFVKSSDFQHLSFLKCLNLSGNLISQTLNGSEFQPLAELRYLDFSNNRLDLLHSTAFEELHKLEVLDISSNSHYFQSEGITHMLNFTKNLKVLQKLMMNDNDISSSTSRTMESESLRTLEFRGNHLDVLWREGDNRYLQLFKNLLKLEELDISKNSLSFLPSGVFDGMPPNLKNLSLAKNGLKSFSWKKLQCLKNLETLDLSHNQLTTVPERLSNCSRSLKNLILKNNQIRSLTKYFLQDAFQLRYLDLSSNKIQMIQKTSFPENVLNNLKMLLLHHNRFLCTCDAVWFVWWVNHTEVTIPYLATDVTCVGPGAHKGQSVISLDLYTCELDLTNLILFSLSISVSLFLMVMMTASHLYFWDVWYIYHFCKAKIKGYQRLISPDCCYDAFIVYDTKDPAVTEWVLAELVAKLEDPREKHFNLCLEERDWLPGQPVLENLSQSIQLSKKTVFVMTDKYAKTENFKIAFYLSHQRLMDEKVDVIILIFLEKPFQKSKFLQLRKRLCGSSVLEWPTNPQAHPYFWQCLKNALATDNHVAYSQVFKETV
Experimental: The ability of compounds to activate human TLR7 and/or TLR8 was assessed in a cellular reporter assay using HEK293 cells transiently transfected with a TLR7 or TLR8 expression vector and NFκB-luc reporter construct. In one instance the TLR expression construct expresses the respective wild type sequence or a mutant sequence comprising a deletion in the second leucine-rich repeat of the TLR.
Briefly, HEK293 cells were grown in culture medium (DMEM supplemented with 10% FCS and 2 mM Glutamine). For transfection of cells in 10 cm dishes, cells were detached with Trypsin-EDTA, transfected with a mix of CMV-TLR7 or TLR8 plasmid (750 ng), NFκB-luc plasmid (375 ng) and a transfection reagent and incubated 24 hours at 37° C. in a humidified 5% CO2 atmosphere. Transfected cells were then detached with Trypsin-EDTA, washed in PBS and resuspended in medium to a density of 1.67×10^5 cells/mL. Thirty microliters of cells were then dispensed into each well in 384-well plates, where 10 μL of compound in 4% DMSO was already present. […] Dose response curves were generated from measurements performed in quadruplicates. Lowest effective concentrations (LEC) values, defined as the concentration that induces an effect which is at least two fold above the standard deviation of the assay, were determined for each compound.

human TLR8 = molecular target: T2, human TLR8 (Homo sapiens, UniProt Q9NR97); experiment: TLR8 wild type NFκB-luc cellular reporter assay; type: cell-based; set-up: unit not given here; settings: HEK293 NFκB-luc reporter, 6 hours incubation; second part of table
T2 construct: expressed in transfected cells; host or cells: HEK293
T2 sequence (Q9NR97 27-1041): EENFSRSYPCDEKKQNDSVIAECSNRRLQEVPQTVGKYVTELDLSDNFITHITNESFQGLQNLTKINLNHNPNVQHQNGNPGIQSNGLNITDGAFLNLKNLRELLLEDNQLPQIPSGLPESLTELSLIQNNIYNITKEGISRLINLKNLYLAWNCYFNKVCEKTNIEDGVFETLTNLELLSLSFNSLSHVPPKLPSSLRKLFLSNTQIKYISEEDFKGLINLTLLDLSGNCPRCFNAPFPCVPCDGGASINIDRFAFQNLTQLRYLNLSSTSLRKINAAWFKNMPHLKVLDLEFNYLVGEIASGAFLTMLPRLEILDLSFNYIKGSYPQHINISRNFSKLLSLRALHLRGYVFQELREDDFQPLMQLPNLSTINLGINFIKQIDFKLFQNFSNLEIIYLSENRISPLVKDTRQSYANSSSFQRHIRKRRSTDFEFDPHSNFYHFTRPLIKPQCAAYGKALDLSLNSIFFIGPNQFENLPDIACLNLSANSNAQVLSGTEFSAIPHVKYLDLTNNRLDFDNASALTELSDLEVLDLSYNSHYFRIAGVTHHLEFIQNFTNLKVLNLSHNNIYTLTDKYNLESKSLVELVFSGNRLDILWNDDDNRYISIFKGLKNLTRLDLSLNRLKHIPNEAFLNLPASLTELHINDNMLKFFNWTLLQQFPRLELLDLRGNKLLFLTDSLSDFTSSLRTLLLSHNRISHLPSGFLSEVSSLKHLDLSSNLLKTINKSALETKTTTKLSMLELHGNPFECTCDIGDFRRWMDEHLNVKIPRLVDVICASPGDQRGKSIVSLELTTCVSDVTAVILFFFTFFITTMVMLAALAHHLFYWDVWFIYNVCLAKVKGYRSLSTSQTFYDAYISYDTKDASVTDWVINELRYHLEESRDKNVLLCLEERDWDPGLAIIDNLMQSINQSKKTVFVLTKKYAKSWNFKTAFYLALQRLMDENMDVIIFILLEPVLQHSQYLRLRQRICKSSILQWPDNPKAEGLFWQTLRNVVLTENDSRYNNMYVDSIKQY
How it was run: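 HEK293 cells transiently transfected with wild-type or second-LRR-deletion (dIRR2) TLR7/TLR8 plasmid plus NFκB-luc, 24 h; compound added for 6 h at 37 °C. Luciferase read-out, quadruplicate dose responses. LEC = lowest concentration giving effect at least two-fold above assay SD.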

| SMILES | TLR7-wt (LEC) (human TLR7) | TLR8-wt (LEC) (human TLR8) |
| --- | --- | --- |
| CC[C@H](C)[C@@H](CO)Nc1nc(N)nc2ccc(OC)cc12 [Compound 80] | >25 | 4.10 |
| CCCC[C@@H](CCO)Nc1nc(N)nc2c(F)cccc12 [Compound 81] | 0.11 | 0.16 |
| CCCCNc1nc(N)nc2cccc(OCCOC)c12 [Compound 11] | 0.08 | 0.17 |
| CCC[C@@H](CCO)Nc1nc(N)nc2ccc(C)cc12 [Compound 54] | 0.54 | 0.43 |
| CCC[C@@H](CCO)Nc1nc(N)nc2cccc(F)c12 [Compound 66] | 0.22 | 0.02 |
| CCC[C@@H](CO)Nc1nc(N)nc2cccc(Cl)c12 [Compound 71] | 1.02 | 0.01 |
| CCCC[C@@H](CO)Nc1nc(N)nc2cccc(F)c12 [Compound 62] | 0.75 | 0.01 |
| CCC[C@@H](CO)Nc1nc(N)nc2cc(Cl)ccc12 [Compound 70] | 0.41 | 0.01 |
| CCCCNc1nc(N)nc2cc(C(=O)OC)ccc12 [Compound 17] | 5.10 | 1.66 |
| CCCC[C@@H](CO)Nc1nc(N)nc2cc(F)ccc12 [Compound 60] | 0.23 | 0.01 |
| CC[C@H](C)[C@@H](CO)Nc1nc(N)nc2c(F)cccc12 [Compound 67] | 2.50 | 0.11 |
| CCCCNc1nc(N)nc2ccc(-n3cnc(C)c3)cc12 [Compound 21] | >25 | 2.55 |
| CCC[C@@H](CO)Nc1nc(N)nc2c(Cl)cccc12 [Compound 69] | 7.48 | 0.38 |
| CCCC[C@@H](CCO)Nc1nc(N)nc2cc(F)ccc12 [Compound 82] | 0.04 | 0.03 |
| CCC[C@@H](CO)Nc1nc(N)nc2ccc(F)cc12 [Compound 49] | 2.09 | 0.03 |
| CCCCNc1nc(N)nc2cccc(C)c12 [Compound 36] | 0.47 | 0.26 |
| CCC[C@@H](CO)Nc1nc(N)nc2cccc(OC)c12 [Compound 58] | 0.18 | 0.03 |
| CCC[C@@H](CCO)Nc1nc(N)nc2cc(F)ccc12 [Compound 64] | 0.11 | 0.03 |
| CCCCNc1nc(N)nc2cccc(Cl)c12 [Compound 41] | 0.99 | 0.13 |
| CCCCNc1nc(N)nc2cc(F)c(F)cc12 [Compound 42] | 1.81 | 0.14 |
| CCCCNc1nc(N)nc2c(F)cccc12 [Compound 37] | 0.16 | 0.25 |
| CCCC[C@@H](CCO)Nc1nc(N)nc2cc(OC)ccc12 [Compound 87] | 0.16 | 0.16 |
| CCCC[C@@H](CCO)Nc1nc(N)nc2ccc(C)cc12 [Compound 74] | 0.44 | 0.25 |
| CCCCNc1nc(N)nc2ccc(Br)cc12 [Compound 85] | 0.51 | 0.10 |
| CCCCNc1nc(N)nc2cc(Cl)c3c(c12)OCCO3 [Compound 28] | 2.06 | 0.88 |
| CCCCNc1nc(N)nc2cc(CO)ccc12 [Compound 18] | 0.13 | 0.13 |
| CCCCNc1nc(N)nc2cc(OC)ccc12 [Compound 39] | 0.94 | 0.31 |
| CCC[C@@H](CO)Nc1nc(N)nc2cccc(-c3ccccc3)c12 [Compound 10] | 6.08 | >25 |
| C#CCOc1cccc2nc(N)nc(NCCCC)c12 [Compound 30] | 0.05 | 0.10 |
| CCCC[C@@H](CO)Nc1nc(N)nc2cc(OC)ccc12 [Compound 76] | 0.26 | 0.04 |
